Assay results reported in patent US9709486B2, “Method of dynamic spectroscopy under physiological conditions” (INOVIEM SCIENTIFIC, priority 2012, dated 2017).

How the values were obtained:
[1] = test system: rat hypothalamus extracts; test: Dynamic NIR spectroscopy of rat hypothalamus extracts in presence of bithionol; settings: FIG. 11
Source text: Sample buffer constituted the blank.

[2] = test system: crude membrane proteins from each patient's PBMC; test: Dynamic NIR spectroscopy of crude PBMC membrane proteins of IBD patients in absence and presence of infliximab; parameters: species or system human; settings: infliximab 10e-6M, samples of patients responding to infliximab, 850-1450 nm, FIG. 17
Experimental: All the patients have a treatment: infliximab (Remicad®). infliximab is an anti-TNFalpha. 50 patients (women=16, men=34) with an average age of 43±8 year seeking medical assistance at Erlangen hospital day-care unit are taking part to the study. Patient's whole blood is collected using sodium citrate vacutainer tubes (5-10 ml/patient). Samples are blinded.
Peripheral blood mononuclear cells (PBMCs) are separated and isolated on ficoll gradient from blood samples, and then frozen. Crude PBMC membranes are prepared in physiological conditions without addition of any protease inhibitor or anti-phosphatase or lyses buffer. PBMC samples were subjected to three fast deep freezing (liquid nitrogen, slow thaw at 4° C., cycle. Determination of protein concentration: total protein concentration was determined using BCA assay (BCA Protein Assay Reagent, bicinchoninic acid). […]
One variable is analyzed in presence and in absence of infliximab: Compare Individual Macromolecular Volume (INV), that is defined as the total macromolecular spectral change from −37° C. to 37° C., due to the macromolecular conformational changes in absence and presence of a drug, expressed as change in absorbance as a function of wavelength and temperature. […]
Results are analyzed based on their spectral fingerprints going from −37° C. to 37° C. and compared to identify responders and non-responders patients.

Row | Molecule | effect on protein assemblies / protein conformation (water molecules spectra in NIR wavelength) ([1]; 1 μM test molecule, extract 10^−6 mg/ml, −37° C. to 37° C.) | reversibility of induced conformation changes ([1]; 1 μM, visible in low temperature (most at −37° C.)) | Individual Macromolecular Volume (INV), total macromolecular spectral change from −37° C. to 37° C. [2]
1 | Oc1c(Cl)cc(Cl)cc1Sc1cc(Cl)cc(Cl)c1O [bithionol] | disturbs the protein assemblies | reversible as the temperature rises | 
2 | infliximab |  |  | increases unanimously
